Assay results taken from publication PMC11040352, “CD38‐Specific Gallium‐68 Labeled Peptide Radiotracer Enables Pharmacodynamic Monitoring in Multiple Myeloma with PET” (Advanced Science, 2024).
Where two headings read alike, the source gives them in different places.

Columns and labels:
[1] = Ex vivo biodistribution in mice with MM1S tumor xenografts; details: NSG, mouse; for tissue uptake at 5 min: 5 min p.i.; for tissue uptake at 0.5 h: 30 min p.i.; for tissue uptake at 1 h / tissue to tissue ratio at 1 h: 60 min p.i.; for tissue uptake at 1.5 h: 90 min p.i.; for tissue uptake at 2 h: 120 min p.i.
Method: Animal studies were performed under Johns Hopkins University Animal Care and Use Committee (ACUC‐approved protocol (Principal investigator: Sridhar Nimmagadda, Ph.D. and Protocol number M021M175). Male and female NSG mice (5‐6 weeks old) were used to establish xenografts by administering 3 million cells (50% Corning Matrigel) subcutaneously to form various tumor models within 3–4 weeks. Imaging or biodistribution studies (n = 3–5) were conducted on mice with tumor volumes of 100–200 mm^3. Disseminated tumor models were developed by injecting 4–5 million cells in saline intravenously for MOLP8 and MM1S‐Luc models (n = 4–5). Luciferase expressing MM1S cell line (MM1S‐Luc) was used to monitor cancer cell dissemination in the body. Tumor establishment was confirmed by injecting D‐Luciferin intraperitoneally (150 mg kg^−1) and imaged mice after 10 min in IVIS bioluminescence imaging system. Bone marrow tumors were ready for imaging after 25–30 d of implantation.
Mice with 100–200 mm^3 tumor volume were used for ex vivo biodistribution studies. For radiotracer pharmacokinetics studies, mice with MOLP8 tumor xenografts received ≈80 µCi (2.96 MBq) [^68Ga]Ga‐AJ206 and were sacrificed at pre‐determined time points (5, 30, 60 and 120 min). Similarly, for dosimetry study, mice with MM1S tumor xenografts received ≈80 µCi (2.96 MBq) of [^68Ga]Ga‐AJ206 and were sacrificed at pre‐determined time points (5, 30, 60, 90 and 120 min). All other mice were injected with ≈50µCi (1.85 MBq) [^68Ga]Ga‐AJ206 and were sacrificed at 60 min. The selected tissues were collected, weighed, counted, and their %ID g^−1 values calculated for biodistribution analysis. The tissues included blood, muscle, tumor, thymus, heart, lung, liver, pancreas, stomach, small intestine, large intestine, spleen, adrenals, kidney, bladder, femur, and brain.

[2] = Octanol/PBS partition coefficient (LogD, pH 7.4); type: physicochemical
Method: Partition coefficients, logD (pH7.4) value, were determined according to a literature procedure.^[ [46] ^] Briefly, a 10 µL solution of [^68Ga]Ga‐AJ206 (around 10 µCi) was added to a solution of 1‐octanol (200 µL) mixed with phosphate buffered saline (PBS) (190 µL) in a 1.5 mL centrifuge tube. After the mixture was vigorously shaken and vortexed, it was centrifuged at 3000 rpm for 5 min. Aliquots (10 µL) were removed from the two phases, and the radioactivity was measured on an automated gamma counter (1282 Compugamma CS, Pharmacia/LKB Nuclear, Inc., Gaithersburg, MD). The logD was calculated as the average log ratio value of the radioactivity in the 1‐octanol fraction and the PBS fraction from the four samples.

[3] = both sexes, adrenals, 80 µCi, MM1S xenograft mice, read-out: uptake in adrenals
[4] = both sexes, bladder, 80 µCi, MM1S xenograft mice, read-out: uptake in bladder
[5] = both sexes, blood, 80 µCi, total radioactivity, MM1S xenograft mice, read-out: uptake in blood
[6] = both sexes, brain, 80 µCi, MM1S xenograft mice, read-out: uptake in brain
[7] = both sexes, femur, 80 µCi, MM1S xenograft mice, read-out: uptake in femur
[8] = both sexes, heart, 80 µCi, total radioactivity, MM1S xenograft mice, read-out: uptake in heart
[9] = both sexes, kidney, 80 µCi, MM1S xenograft mice, read-out: uptake in kidney
[10] = both sexes, large intestine (with contents), 80 µCi, MM1S xenograft mice, read-out: uptake in large intestine (with contents)
[11] = both sexes, liver, 80 µCi, total radioactivity, MM1S xenograft mice, read-out: uptake in liver
[12] = both sexes, lung, 80 µCi, total radioactivity, MM1S xenograft mice, read-out: uptake in lung
[13] = both sexes, muscle, 80 µCi, MM1S xenograft mice, read-out: uptake in muscle
[14] = both sexes, pancreas, 80 µCi, total radioactivity, MM1S xenograft mice, read-out: uptake in pancreas
[15] = both sexes, small intestine (with contents), 80 µCi, MM1S xenograft mice, read-out: uptake in small intestine (with contents)
[16] = both sexes, spleen, 80 µCi, total radioactivity, MM1S xenograft mice, read-out: uptake in spleen
[17] = both sexes, stomach (with contents), 80 µCi, MM1S xenograft mice, read-out: uptake in stomach (with contents)
[18] = both sexes, thymus, 80 µCi, total radioactivity, MM1S xenograft mice, read-out: uptake in thymus
[19] = both sexes, tumor, 80 µCi, total radioactivity, MM1S xenograft mice, read-out: uptake in tumor
[20] = female, ovary, 80 µCi, MM1S xenograft mice, read-out: uptake in ovary

## CC[C@H](C)[C@@H]1NC(=O)[C@@H]2CCCN2C(=O)[C@H](Cc2ccccc2)NC(=O)[C@H](CC(=O)O)NC(=O)[C@H](C)NC(=O)[C@@H]2CSCc3cc(cc(c3)CSC[C@H](NC(=O)[C@H](C)NC(=O)CCOCCOCCOCCNC(=O)CN3CCN(CC(=O)O)CCN(CC(=O)O)CC3)C(=O)N[C@@H](C(C)C)C(=O)N3CCC[C@H]3C(=O)N2)CSC[C@@H](C(N)=O)NC(=O)[C@H](Cc2ccc(O)cc2)NC(=O)[C@H](Cc2c[nH]c3ccccc23)NC1=O [[^68Ga]Ga‐AJ206, metal not drawn]
[1]; [3]
  tissue uptake at 5 min: 5.07 ± 0.11 %ID/g
  tissue uptake at 0.5 h: 2.08 ± 0.38 %ID/g
  tissue uptake at 1 h: 0.59 ± 0.06 %ID/g
  tissue uptake at 1.5 h: 0.44 ± 0.1 %ID/g
  tissue uptake at 2 h: 0.57 ± 0.14 %ID/g
[1]; [4]
  tissue uptake at 5 min: 9.35 ± 1.87 %ID/g
  tissue uptake at 0.5 h: 4.51 ± 0.93 %ID/g
  tissue uptake at 1 h: 0.75 ± 0.08 %ID/g
  tissue uptake at 1.5 h: 1.23 ± 0.1 %ID/g
  tissue uptake at 2 h: 0.9 ± 0.37 %ID/g
[1]; both sexes, blood, 2 mg/kg, MM1S xenograft mice with blocking dose (2 mg kg^−1 AJ206), read-out: uptake in blood
  tissue uptake at 1 h: 2.17 ± 1.17 %ID/g
[1]; both sexes, blood, 80 µCi, MM1S xenograft mice, read-out: uptake in blood
  tissue uptake at 2 h: 0.33 ± 0.07 %ID/g
[1]; [5]
  tissue uptake at 5 min: 20.7 ± 1.68 %ID/g
  tissue uptake at 0.5 h: 2.95 ± 0.37 %ID/g
  tissue uptake at 1 h: 0.75 ± 0.29 %ID/g
  tissue uptake at 1.5 h: 0.75 ± 0.24 %ID/g
[1]; [6]
  tissue uptake at 5 min: 0.44 ± 0.07 %ID/g
  tissue uptake at 0.5 h: 0.21 ± 0.12 %ID/g
  tissue uptake at 1 h: 0.06 ± 0.03 %ID/g
  tissue uptake at 1.5 h: 0.03 ± 0.01 %ID/g
  tissue uptake at 2 h: 0.02 ± 0.01 %ID/g
[1]; both sexes, femur, 2 mg/kg, MM1S xenograft mice with blocking dose (2 mg kg^−1 AJ206), read-out: uptake in femur
  tissue uptake at 1 h: 0.25 ± 0.09 %ID/g
[1]; [7]
  tissue uptake at 5 min: 3.37 ± 0.31 %ID/g
  tissue uptake at 0.5 h: 0.86 ± 0.06 %ID/g
  tissue uptake at 1 h: 0.33 ± 0.12 %ID/g
  tissue uptake at 1.5 h: 0.28 ± 0.05 %ID/g
  tissue uptake at 2 h: 0.09 ± 0.02 %ID/g
[1]; both sexes, heart, 2 mg/kg, MM1S xenograft mice with blocking dose (2 mg kg^−1 AJ206), read-out: uptake in heart
  tissue uptake at 1 h: 0.33 ± 0.03 %ID/g
[1]; [8]
  tissue uptake at 5 min: 6.38 ± 0.42 %ID/g
  tissue uptake at 0.5 h: 1 ± 0.15 %ID/g
  tissue uptake at 1 h: 0.29 ± 0.03 %ID/g
  tissue uptake at 1.5 h: 0.35 ± 0.08 %ID/g
  tissue uptake at 2 h: 0.16 ± 0.01 %ID/g
[1]; both sexes, kidney, 2 mg/kg, MM1S xenograft mice with blocking dose (2 mg kg^−1 AJ206), read-out: uptake in kidney
  tissue uptake at 1 h: 15.9 ± 1.12 %ID/g
[1]; [9]
  tissue uptake at 5 min: 31.5 ± 4.15 %ID/g
  tissue uptake at 0.5 h: 21.6 ± 2.02 %ID/g
  tissue uptake at 1 h: 14.1 ± 0.57 %ID/g
  tissue uptake at 1.5 h: 13.2 ± 1.59 %ID/g
  tissue uptake at 2 h: 9.39 ± 1.5 %ID/g
[1]; [10]
  tissue uptake at 5 min: 3.11 ± 0.38 %ID/g
  tissue uptake at 0.5 h: 0.75 ± 0.04 %ID/g
  tissue uptake at 1 h: 0.29 ± 0.03 %ID/g
  tissue uptake at 1.5 h: 0.27 ± 0.05 %ID/g
  tissue uptake at 2 h: 0.27 ± 0.19 %ID/g
[1]; both sexes, liver, 2 mg/kg, MM1S xenograft mice with blocking dose (2 mg kg^−1 AJ206), read-out: uptake in liver
  tissue uptake at 1 h: 1.45 ± 0.26 %ID/g
[1]; [11]
  tissue uptake at 5 min: 30.3 ± 3.51 %ID/g
  tissue uptake at 0.5 h: 3.64 ± 0.31 %ID/g
  tissue uptake at 1 h: 1.38 ± 0.04 %ID/g
  tissue uptake at 1.5 h: 1.16 ± 0.08 %ID/g
  tissue uptake at 2 h: 0.73 ± 0.1 %ID/g
[1]; both sexes, lung, 2 mg/kg, MM1S xenograft mice with blocking dose (2 mg kg^−1 AJ206), read-out: uptake in lung
  tissue uptake at 1 h: 0.94 ± 0.09 %ID/g
[1]; [12]
  tissue uptake at 5 min: 10.2 ± 4.52 %ID/g
  tissue uptake at 0.5 h: 3.43 ± 0.5 %ID/g
  tissue uptake at 1 h: 0.67 ± 0.07 %ID/g
  tissue uptake at 1.5 h: 0.95 ± 0.18 %ID/g
  tissue uptake at 2 h: 0.4 ± 0.04 %ID/g
[1]; both sexes, muscle, 2 mg/kg, MM1S xenograft mice with blocking dose (2 mg kg^−1 AJ206), read-out: uptake in muscle
  tissue uptake at 1 h: 0.21 ± 0.07 %ID/g
[1]; [13]
  tissue uptake at 5 min: 1.96 ± 0.28 %ID/g
  tissue uptake at 0.5 h: 0.55 ± 0.09 %ID/g
  tissue uptake at 1 h: 0.13 ± 0.02 %ID/g
  tissue uptake at 1.5 h: 0.18 ± 0.04 %ID/g
[1]; both sexes, muscle, 80 µCi, total radioactivity, MM1S xenograft mice, read-out: uptake in muscle
  tissue uptake at 2 h: 0.09 ± 0.02 %ID/g
[1]; both sexes, pancreas, 2 mg/kg, MM1S xenograft mice with blocking dose (2 mg kg^−1 AJ206), read-out: uptake in pancreas
  tissue uptake at 1 h: 0.64 ± 0.39 %ID/g
[1]; [14]
  tissue uptake at 5 min: 3.55 ± 0.34 %ID/g
  tissue uptake at 0.5 h: 0.79 ± 0.14 %ID/g
  tissue uptake at 1 h: 0.19 ± 0.03 %ID/g
  tissue uptake at 1.5 h: 0.26 ± 0.06 %ID/g
  tissue uptake at 2 h: 0.17 ± 0.05 %ID/g
[1]; [15]
  tissue uptake at 5 min: 5 ± 0.7 %ID/g
  tissue uptake at 0.5 h: 0.95 ± 0.1 %ID/g
  tissue uptake at 1 h: 0.2 ± 0.1 %ID/g
  tissue uptake at 1.5 h: 0.41 ± 0.08 %ID/g
  tissue uptake at 2 h: 0.52 ± 0.21 %ID/g
[1]; both sexes, small intestine, 2 mg/kg, MM1S xenograft mice with blocking dose (2 mg kg^−1 AJ206), read-out: uptake in small intestine
  tissue uptake at 1 h: 0.87 ± 0.5 %ID/g
[1]; both sexes, spleen, 2 mg/kg, MM1S xenograft mice with blocking dose (2 mg kg^−1 AJ206), read-out: uptake in spleen
  tissue uptake at 1 h: 0.9 ± 0.45 %ID/g
[1]; [16]
  tissue uptake at 5 min: 6.41 ± 1.3 %ID/g
  tissue uptake at 0.5 h: 1.21 ± 0.15 %ID/g
  tissue uptake at 1 h: 0.41 ± 0.05 %ID/g
  tissue uptake at 1.5 h: 0.43 ± 0.07 %ID/g
  tissue uptake at 2 h: 0.28 ± 0.05 %ID/g
[1]; [17]
  tissue uptake at 5 min: 1.65 ± 0.19 %ID/g
  tissue uptake at 0.5 h: 0.54 ± 0.19 %ID/g
  tissue uptake at 1 h: 0.32 ± 0.21 %ID/g
  tissue uptake at 1.5 h: 0.82 ± 0.36 %ID/g
  tissue uptake at 2 h: 0.47 ± 0.3 %ID/g
[1]; both sexes, stomach, 2 mg/kg, MM1S xenograft mice with blocking dose (2 mg kg^−1 AJ206), read-out: uptake in stomach
  tissue uptake at 1 h: 1.01 ± 0.56 %ID/g
[1]; [18]
  tissue uptake at 5 min: 16.5 ± 5.34 %ID/g
  tissue uptake at 0.5 h: 2.67 ± 0.83 %ID/g
  tissue uptake at 1 h: 0.69 ± 0.19 %ID/g
  tissue uptake at 1.5 h: 0.84 ± 0.18 %ID/g
  tissue uptake at 2 h: 0.33 ± 0.1 %ID/g
[1]; both sexes, tumor, 2 mg/kg, MM1S xenograft mice with blocking dose (2 mg kg^−1 AJ206), read-out: uptake in tumor
  tissue uptake at 1 h: 1.37 ± 0.22 %ID/g
[1]; [19]
  tissue uptake at 5 min: 3.09 ± 0.16 %ID/g
  tissue uptake at 0.5 h: 4.15 ± 0.53 %ID/g
  tissue uptake at 1.5 h: 1.6 ± 0.46 %ID/g
  tissue uptake at 2 h: 1.3 ± 0.4 %ID/g
[1]; both sexes, tumor, MM1S xenograft mice, read-out: uptake in tumor
  tissue uptake at 1 h: 2.48 ± 0.17 %ID/g
[1]; both sexes, tumor/blood, total radioactivity, MM1S xenograft mice with blocking dose (2 mg kg^−1 AJ206), read-out: Tumor/Blood ratio
  tissue to tissue ratio at 1 h: 1.08 ± 0.4
[1]; both sexes, tumor/blood, total radioactivity, MM1S xenograft mice, read-out: Tumor/Blood ratio
  tissue to tissue ratio at 1 h: 2.9 ± 0.65
[1]; both sexes, tumor/muscle, total radioactivity, MM1S xenograft mice with blocking dose (2 mg kg^−1 AJ206), read-out: Tumor/Muscle ratio
  tissue to tissue ratio at 1 h: 8.31 ± 2.41
[1]; both sexes, tumor/muscle, total radioactivity, MM1S xenograft mice, read-out: Tumor/Muscle ratio
  tissue to tissue ratio at 1 h: 21.2 ± 3.4
[1]; [20]
  tissue uptake at 5 min: 4.11 ± 1.4 %ID/g
  tissue uptake at 0.5 h: 1.48 ± 0.32 %ID/g
  tissue uptake at 1 h: 0.2 ± 0.06 %ID/g
  tissue uptake at 1.5 h: 0.32 ± 0.14 %ID/g
  tissue uptake at 2 h: 0.45 ± 0.15 %ID/g
[2]
  logD: -1.32 ± 0.08
